This note sets out measurements from patent publication US12310975B2, “Modulators of BCL6 proteolysis and associated methods of use” (Arvinas Operations, Inc., priority 2019, dated 2025).

Experiment [1] concerns the target T1, BCL6 (Homo sapiens (Human), UniProt P41182). The experiment can be described thus: Immunofluorescence high content imaging of BCL6 degradation in T47D cells. Format: cell-based. The following applies: for Dmax: T47D; for DC50: class symbols A-D, read-out: EC50 (nM)*. An outline of the steps: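 Seed T47D in RPMI1640-10% FBS to reach ~70-90% confluence at endpoint; add degrader next day (11-point 3-fold series, top 0.1 or 1 μM final) for 3 days. Then fix, permeabilize, stain BCL6 with nuclear Hoechst, and image.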

For experiment [2], the target named is T1, BCL6. The experiment in a line: BCL6 TR-FRET assay (BCL6-Avitag-Biotin / BCoR-Cy5 peptide). Format: binding. A digest of the protocol: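 After 30 min room-temperature preincubation of compound titrations with 2 nM biotinylated BCL6-Avitag, 100 nM Cy5-labelled BCoR peptide plus 2 nM Eu-streptavidin were added and TR-FRET read 2 h later. HEPES pH 7.5/125 mM NaCl buffer with Triton X, glutathione (or DTT) and BSA.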
For orientation: In TR-FRET formats the signal depends on donor and acceptor labels being close together.

Where [3] appears, read: class symbols A-D, read-out: IC50 (nM)***.

One may read the Dmax as the largest share of the target that was removed. Read a high Dmax as deep degradation. By IC50 is commonly meant the point on the concentration scale where inhibition reaches its midpoint. As a reminder, the EC50 is the concentration giving half of the maximal effect. A high value points to a need for much substance.

`CC(=O)COc1cc2cc(Nc3nc(N4CCC(CN5CC6(C5)CN(c5ccc7c(c5)C(=O)N(C5CCC(=O)NC5=O)C7=O)C6)CC4)ncc3Cl)ccc2n(C)c1=O` (stereo not drawn) [compound 165, 5-(6-((1-(5-chloro-4-((1-methyl-2-oxo-3-(2-oxopropoxy)-1,2-dihydroquinolin-6-yl)amino)pyrimidin-2-yl)piperidin-4-yl)methyl)-2,6-diazaspiro[3.3]heptan-2-yl)-2-(2,6-dioxopiperidin-3-yl)isoindoline-1,3-dione]: at BCL6 [1] (maximum, class symbols A-C), the Dmax lay within 50 to 70%. In addition, the DC50 at BCL6 [1] lay within 10 to 50 nM. Besides, the IC50 at BCL6 [2] (setting [3]) fell in the range of 10 to 50 nM.

On BCL6 [1], `CNC(=O)COc1cc2cc(Nc3nc(N4CCN(CC5CCN(c6ccc(C(=O)NC7CCC(=O)NC7=O)c(F)c6)CC5)CC4)ncc3Cl)ccc2n(C)c1=O` (stereo not drawn) [compound 233, 4-(4-((4-(5-chloro-4-((1-methyl-3-(2-(methylamino)-2-oxoethoxy)-2-oxo-1,2-dihydroquinolin-6-yl)amino)pyrimidin-2-yl)piperazin-1-yl)methyl)piperidin-1-yl)-N-(2,6-dioxopiperidin-3-yl)-2-fluorobenzamide] returned an IC50 of no less than 100 nM and a Dmax of less than 50%. Besides, at BCL6 [2], the EC50 is greater than 100 nM.

For the compound `CNC(=O)COc1cc2cc(Nc3nc(N4CCN(CC(C)(C)N5CCN(c6ccc7c(c6)C(=O)N(C6CCC(=O)NC6=O)C7=O)CC5)CC4)ncc3Cl)ccc2n(C)c1=O` (stereo not drawn) [compound 280, 2-{[6-({5-chloro-2-[4-(2-{4-[2-(2,6-dioxopiperidin-3-yl)-1,3-dioxo-2,3-dihydro-1H-isoindol-5-yl]piperazin-1-yl}-2-methylpropyl)piperazin-1-yl]pyrimidin-4-yl}amino)-1-methyl-2-oxo-1,2-dihydroquinolin-3-yl]oxy}-N-methylacetamide], on BCL6 [1], the IC50 was 10 to 50 nM and the Dmax lay in the range of 50 to 70%. Moreover, at BCL6 [2], the EC50 lay within 10 to 50 nM.

On to `CNC(=O)COc1cc2cc(Nc3nc(N4CCN(CC5CCC6(CC5)CN(c5ccc(F)c7c5C(=O)N(C5CCC(=O)NC5=O)C7=O)C6)CC4)ncc3Cl)ccc2n(C(C)C)c1=O` (stereo not drawn) [compound 541, 2-{[6-({5-chloro-2-[4-({2-[2-(2,6-dioxopiperidin-3-yl)-7-fluoro-1,3-dioxo-2,3-dihydro-1H-isoindol-4-yl]-2-azaspiro[3.5]nonan-7-yl}methyl)piperazin-1-yl]pyrimidin-4-yl}amino)-2-oxo-1-(propan-2-yl)-1,2-dihydroquinolin-3-yl]oxy}-N-methylacetamide], for which the Dmax on BCL6 [1] is no less than 70%. Also, the IC50 on BCL6 [2] (read-out: IC50) is less than 10 nM.

For the compound `CNC(=O)COc1cc2cc(Nc3nc(N4CCC(O[C@H]5C[C@H](N6CCN(c7cccc8c7C(=O)N(C7CCC(=O)NC7=O)C8=O)CC6)C5)CC4)ncc3Cl)ccc2n(C(C)C)c1=O` (stereo partly drawn) [compound 518, 2-({6-[(5-chloro-2-{4-[(1r,3r)-3-{4-[2-(2,6-dioxopiperidin-3-yl)-1,3-dioxo-2,3-dihydro-1H-isoindol-4-yl]piperazin-1-yl}cyclobutoxy]piperidin-1-yl}pyrimidin-4-yl)amino]-2-oxo-1-(propan-2-yl)-1,2-dihydroquinolin-3-yl}oxy)-N-methylacetamide], the Dmax on BCL6 [1] is no less than 70%. In addition, the IC50 on BCL6 [2] (read-out: IC50) is 10 to 50 nM.

Turning to `CC(=O)COc1cc2cc(Nc3nc(C#CC4CCCN(Cc5ccc6c(c5)C(=O)N(C5CCC(=O)NC5=O)C6=O)C4)ncc3Cl)ccc2n(C)c1=O` (stereo not drawn) [compound 173, 5-((3-((5-chloro-4-((1-methyl-2-oxo-3-(2-oxopropoxy)-1,2-dihydroquinolin-6-yl)amino)pyrimidin-2-yl)ethynyl)piperidin-1-yl)methyl)-2-(2,6-dioxopiperidin-3-yl)isoindoline-1,3-dione], the Dmax on BCL6 [1] (maximum, class symbols A-C) is less than 50%. Besides, the DC50 on BCL6 [1] is 10 to 50 nM. In addition, the IC50 at BCL6 [2] (setting [3]) is no less than 100 nM.

The compound `CC(=O)COc1cc2cc(Nc3nc(N4CCC(N(C)C5CCN(c6ccc7c(c6)C(=O)N(C6CCC(=O)NC6=O)C7=O)CC5)CC4)ncc3Cl)ccc2n(C)c1=O` (stereo not drawn) [compound 169, 5-(4-((1-(5-chloro-4-((1-methyl-2-oxo-3-(2-oxopropoxy)-1,2-dihydroquinolin-6-yl)amino)pyrimidin-2-yl)piperidin-4-yl)(methyl)amino)piperidin-1-yl)-2-(2,6-dioxopiperidin-3-yl)isoindoline-1,3-dione] showed a Dmax at BCL6 [1] (maximum, class symbols A-C) of 50 to 70%. Moreover, the DC50 on BCL6 [1] is less than 10 nM. Further, the half-inhibitory concentration (IC50) on BCL6 [2] (setting [3]) was 10 to 50 nM.

At BCL6 [1], `CNC(=O)COc1cc2cc(Nc3nc(N4CCN(CC5CCN(c6cccc(F)c6C(=O)NC6CCC(=O)NC6=O)CC5)CC4)ncc3Cl)ccc2n(C)c1=O` (stereo not drawn) [compound 275, 2-[4-({4-[5-chloro-4-({1-methyl-3-[(methylcarbamoyl)methoxy]-2-oxo-1,2-dihydroquinolin-6-yl}amino)pyrimidin-2-yl]piperazin-1-yl}methyl)piperidin-1-yl]-N-(2,6-dioxopiperidin-3-yl)-6-fluorobenzamide] displayed an IC50 of less than 10 nM and a Dmax of less than 50%. On BCL6 [2], this compound displayed an EC50 of 10 to 50 nM.

As for `CNC(=O)COc1cc2cc(Nc3nc(N4CCC5(CC4)CCN(C4CCN(c6cccc7c6C(=O)N(C6CCC(=O)NC6=O)C7=O)CC4)C5)ncc3Cl)ccc2n(C(C)C)c1=O` (stereo not drawn) [compound 520, 2-[(6-{[5-chloro-2-(2-{1-[2-(2,6-dioxopiperidin-3-yl)-1,3-dioxo-2,3-dihydro-1H-isoindol-4-yl]piperidin-4-yl}-2,8-diazaspiro[4.5]decan-8-yl)pyrimidin-4-yl]amino}-2-oxo-1-(propan-2-yl)-1,2-dihydroquinolin-3-yl)oxy]-N-methylacetamide], on BCL6 [1], the Dmax is less than 50%. The IC50 on BCL6 [2] (read-out: IC50) was less than 10 nM.

As to `CNC(=O)COc1cc2cc(Nc3nc(N4CCC(CN5CCN(c6ccc7c(c6)C(=O)N(C6CCC(=O)NC6=O)C7=O)CC5)CC4)ncc3Cl)ccc2n(C)c1=O` (stereo not drawn) [compound 104, 2-((6-((5-chloro-2-(4-((4-(2-(2,6-dioxopiperidin-3-yl)-1,3-dioxoisoindolin-5-yl)piperazin-1-yl)methyl)piperidin-1-yl)pyrimidin-4-yl)amino)-1-methyl-2-oxo-1,2-dihydroquinolin-3-yl)oxy)-N-methylacetamide], the Dmax on BCL6 [1] (maximum, class symbols A-C) is 50 to 70%. On BCL6 [1], the DC50 was 10 to 50 nM. In addition, the IC50 at BCL6 [2] (setting [3]) was in the range of 10 to 50 nM.

At BCL6 [1], `CNC(=O)COc1cc2cc(Nc3nc(N4CCC(O[C@H]5C[C@H](N6CCN(c7ccc8c(c7)C(=O)N(C7CCC(=O)NC7=O)C8=O)CC6)C5)CC4)ncc3Cl)ccc2n(C(C)C)c1=O` (stereo partly drawn) [compound 531, 2-({6-[(5-chloro-2-{4-[(1r,3r)-3-{4-[2-(2,6-dioxopiperidin-3-yl)-1,3-dioxo-2,3-dihydro-1H-isoindol-5-yl]piperazin-1-yl}cyclobutoxy]piperidin-1-yl}pyrimidin-4-yl)amino]-2-oxo-1-(propan-2-yl)-1,2-dihydroquinolin-3-yl}oxy)-N-methylacetamide] gave a Dmax of less than 50%. The IC50 at BCL6 [2] (read-out: IC50) was less than 10 nM.

For the compound `CNC(=O)COc1cc2cc(Nc3nc(N4CCN(C(C)(C)CN5CCN(c6ccc7c(c6)C(=O)N(C6CCC(=O)NC6=O)C7=O)CC5)CC4)ncc3Cl)ccc2n(C)c1=O` (stereo not drawn) [compound 279, 2-{[6-({5-chloro-2-[4-(1-{4-[2-(2,6-dioxopiperidin-3-yl)-1,3-dioxo-2,3-dihydro-1H-isoindol-5-yl]piperazin-1-yl}-2-methylpropan-2-yl)piperazin-1-yl]pyrimidin-4-yl}amino)-1-methyl-2-oxo-1,2-dihydroquinolin-3-yl]oxy}-N-methylacetamide], on BCL6 [1], the IC50 fell in the range of 10 to 50 nM and the Dmax was in the range of 50 to 70%. Moreover, the half-maximal effective concentration (EC50) on BCL6 [2] is 10 to 50 nM.

At BCL6 [1], `CNC(=O)COc1cc2cc(Nc3nc(N4CCCN(CC5CCN(c6ccc7c(c6)C(=O)N(C6CCC(=O)NC6=O)C7=O)CC5)CC4)ncc3Cl)ccc2n(C)c1=O` (stereo not drawn) [compound 215, 2-((6-((5-chloro-2-(4-((1-(2-(2,6-dioxopiperidin-3-yl)-1,3-dioxoisoindolin-5-yl)piperidin-4-yl)methyl)-1,4-diazepan-1-yl)pyrimidin-4-yl)amino)-1-methyl-2-oxo-1,2-dihydroquinolin-3-yl)oxy)-N-methylacetamide] displayed an IC50 of 10 to 50 nM and a Dmax of less than 50%. On BCL6 [2], the concentration giving a half-maximal response (EC50) was in the range of 50 to 100 nM.

In turn, `CNC(=O)COc1cc2cc(Nc3nc(N4CCN(CC5CCC6(CC5)CN(c5ccc7c(c5)C(=O)N(C5CCC(=O)NC5=O)C7=O)C6)CC4)ncc3Cl)ccc2n(C(C)C)c1=O` (stereo not drawn) [compound 451, 2-{[6-({5-chloro-2-[4-({2-[2-(2,6-dioxopiperidin-3-yl)-1,3-dioxo-2,3-dihydro-1H-isoindol-5-yl]-2-azaspiro[3.5]nonan-7-yl}methyl)piperazin-1-yl]pyrimidin-4-yl}amino)-2-oxo-1-(propan-2-yl)-1,2-dihydroquinolin-3-yl]oxy}-N-methylacetamide] displayed a Dmax on BCL6 [1] of 50 to 70%. On BCL6 [2] (read-out: IC50), the IC50 is less than 10 nM.

`CNC(=O)/C=C/c1cc2cc(Nc3nc(N4CCC(CN5CCN(c6ccc7c(c6)C(=O)N(C6CCC(=O)NC6=O)C7=O)CC5)CC4)ncc3Cl)ccc2n(C)c1=O` (stereo not drawn) [compound 174, (E)-3-(6-((5-chloro-2-(4-((4-(2-(2,6-dioxopiperidin-3-yl)-1,3-dioxoisoindolin-5-yl)piperazin-1-yl)methyl)piperidin-1-yl)pyrimidin-4-yl)amino)-1-methyl-2-oxo-1,2-dihydroquinolin-3-yl)-N-methylacrylamide]: the Dmax at BCL6 [1] (maximum, class symbols A-C) lay in the range of 50 to 70%. The IC50 on BCL6 [2] (setting [3]) fell in the range of 10 to 50 nM.
